Literature values as cited in US20250381197A1, “Regimen for Treating Amyotrophic Lateral Sclerosis Having Onset 24 Months Prior to Treatment” (Woolsey Pharmaceuticals, Inc., priority 2022, published 2025).
Where two headings read alike, the source gives them in different places.

Experiments:
[1] = 1-hydroxy (M3) metabolite; cited from earlier work
ALS patients [2] = conditions: 6-month study; ALS onset between 3 and 36 months; 30 mg twice a day; cited from earlier work
human ALS patients = conditions: 30 mg intravenously twice daily over 20 consecutive working days; 3 patients; cited from earlier work
ALS patients [3] = conditions: cited from earlier work

Compound: O=S(=O)(c1cccc2c(O)nccc12)N1CCCNCC1 [M3]
- half-life [1]: about 8 hours

Compound: Cl.O=S(=O)(c1cccc2cnccc12)N1CCCNCC1 [Fasudil, Hexahydro-1-(5-isoquinolinesulfonyl)-1H-1,4-diazepine monohydrochloride hemihydrate]
- disease modification (ALS patients [2]): did not result in any disease modification
- outcome of compassionate use (human ALS patients): no conclusive results beyond safety

Compound: CC1=NN(c2ccccc2)C(=O)C1 [edaravone]
- primary endpoint (ALS patients [3]; enrollment narrowed to patients diagnosed two years or less (Tanaka 2016a)): met the primary endpoint
- primary endpoint (ALS patients [3]; enrollment of three years or less (Abe 2017)): did not meet the primary endpoint
- treatment effect between placebo and edaravone (ALS patients [3]; severe ALS patients, disease onset of less than three years (Tanaka 2016b)): failed to demonstrate any treatment effect
